# Results: patent publication US10406207B2, “Peptide conjugates of GLP-1 receptor agonists and gastrin and their use” (priority 2010, dated 2019)
# Like-named read-outs stand apart in the source and are kept apart here. Square brackets hold non-standard residues; d marks the D form. Peptide text beside a SMILES is read from it. Orn = NCCC[C@H](N)C(=O)O; AEEA = NCCOCCOCC(=O)O
# What was measured:
# human CCK-B R = target: T1, human CCK-B R (Homo sapiens, UniProt P32239); assay: Human CCK-B receptor efficacy assay (AlphaScreen SureFire p-ERK); type: cell-based; conditions: read-out: hCCK-B R EC50
# T1 construct: expressed in transfected cells
# T1 sequence (P32239 1-447): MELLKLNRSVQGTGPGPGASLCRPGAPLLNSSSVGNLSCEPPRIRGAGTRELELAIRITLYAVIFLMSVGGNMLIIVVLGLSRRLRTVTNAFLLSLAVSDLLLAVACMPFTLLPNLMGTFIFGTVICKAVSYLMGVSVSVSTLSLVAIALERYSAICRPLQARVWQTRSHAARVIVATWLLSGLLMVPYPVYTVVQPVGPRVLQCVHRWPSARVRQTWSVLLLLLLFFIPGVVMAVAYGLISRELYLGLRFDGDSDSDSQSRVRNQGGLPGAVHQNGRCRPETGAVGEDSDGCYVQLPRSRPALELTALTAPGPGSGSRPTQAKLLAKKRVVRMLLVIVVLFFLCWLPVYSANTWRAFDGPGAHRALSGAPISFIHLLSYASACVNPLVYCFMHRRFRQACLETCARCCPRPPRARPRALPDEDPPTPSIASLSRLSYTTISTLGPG
# human GLP-1 R = target: T2, human GLP-1 R (Homo sapiens, UniProt P43220); assay: Human GLP-1 receptor efficacy assay (cAMP induction, FlashPlate); type: cell-based; conditions: Table 2; read-out: hGLP-1 R EC50
# T2 construct: expressed in transfected cells
# T2 sequence (P43220 24-463): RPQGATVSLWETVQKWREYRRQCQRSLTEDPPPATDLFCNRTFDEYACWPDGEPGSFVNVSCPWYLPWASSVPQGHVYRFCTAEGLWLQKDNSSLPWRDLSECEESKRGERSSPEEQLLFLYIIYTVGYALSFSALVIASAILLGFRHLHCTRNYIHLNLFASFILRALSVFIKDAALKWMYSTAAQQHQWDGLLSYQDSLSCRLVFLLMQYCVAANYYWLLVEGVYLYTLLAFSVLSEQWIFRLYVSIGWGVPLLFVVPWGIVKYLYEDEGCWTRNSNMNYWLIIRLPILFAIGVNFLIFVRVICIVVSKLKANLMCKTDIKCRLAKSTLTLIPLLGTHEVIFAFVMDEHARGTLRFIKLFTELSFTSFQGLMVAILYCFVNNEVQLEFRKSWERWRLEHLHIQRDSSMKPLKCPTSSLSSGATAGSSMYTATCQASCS
# Procedure: On the day of analysis, growth medium was removed and the cells were washed once with 200 μl Tyrode buffer [Tyrode's Salts (9.6 g/l), 10 mM HEPES, pH 7.4]. […] The reaction was stopped by addition of 25 μl 0.5 M HCl and incubated on ice for 60 min.
Molecule,EC50 (human CCK-B R; Table 2) [nM],EC50 (human GLP-1 R) [nM],EC50 (human CCK-B R; Table 3) [nM]
"CC[C@H](C)[C@H](NC(=O)[C@H](Cc1ccccc1)NC(=O)[C@H](CC(C)C)NC(=O)[C@H](CCCNC(=N)N)NC(=O)[C@@H](NC(=O)[C@H](C)NC(=O)[C@H](CCC(=O)O)NC(=O)[C@H](CCC(=O)O)NC(=O)[C@H](CCC(=O)O)NC(=O)[C@H](CCSC)NC(=O)[C@H](Cc1ccc(O)cc1)NC(=O)[C@H](CCCCN)NC(=O)[C@H](CO)NC(=O)[C@H](CC(C)C)NC(=O)[C@H](CC(=O)O)NC(=O)[C@H](CO)NC(=O)[C@@H](NC(=O)[C@H](Cc1ccccc1)NC(=O)[C@@H](NC(=O)CNC(=O)[C@H](CCC(=O)O)NC(=O)CNC(=O)[C@@H](N)Cc1c[nH]cn1)[C@@H](C)O)[C@@H](C)O)C(C)C)C(=O)N[C@@H](CCC(=O)O)C(=O)N[C@@H](Cc1c[nH]c2ccccc12)C(=O)N[C@@H](CC(C)C)C(=O)N[C@@H](CCCCN)C(=O)N[C@@H](CC(N)=O)C(=O)NCCOCCOCC(=O)NCCOCCOCC(=O)N[C@@H](Cc1ccc(O)cc1)C(=O)NCC(=O)N[C@@H](Cc1c[nH]c2ccccc12)C(=O)N[C@@H](CC(C)C)C(=O)N[C@@H](CC(=O)O)C(=O)N[C@@H](Cc1ccccc1)C(N)=O [Compound 65, [Tyr13]Exendin-4(1-28)-Peg3-Peg3-[Leu4]Gastrin6] (H-HGEGTFTSDLSKYMEEEAVRLFIEWLKN[AEEA][AEEA]YGWLDF-NH2)",12,0.046,
"CC[C@H](C)[C@H](NC(=O)[C@H](Cc1ccccc1)NC(=O)[C@H](CC(C)C)NC(=O)[C@H](CCCNC(=N)N)NC(=O)[C@@H](NC(=O)[C@H](C)NC(=O)[C@H](CCC(=O)O)NC(=O)[C@H](CCC(=O)O)NC(=O)[C@H](CCC(=O)O)NC(=O)[C@H](CC(C)C)NC(=O)[C@H](Cc1ccc(O)cc1)NC(=O)[C@H](CCCCN)NC(=O)[C@H](CO)NC(=O)[C@H](CC(C)C)NC(=O)[C@H](CCC(=O)O)NC(=O)[C@H](CO)NC(=O)[C@@H](NC(=O)[C@H](Cc1ccccc1)NC(=O)[C@@H](NC(=O)CNC(=O)[C@H](CCC(=O)O)NC(=O)CNC(=O)[C@@H](N)Cc1c[nH]cn1)[C@@H](C)O)[C@@H](C)O)C(C)C)C(=O)N[C@@H](CCC(=O)O)C(=O)N[C@@H](Cc1ccccc1)C(=O)N[C@@H](CC(C)C)C(=O)N[C@@H](CCCCN)C(=O)N[C@@H](CCCN)C(=O)NCCOCCOCC(=O)N[C@@H](Cc1c[nH]c2ccccc12)C(=O)N[C@@H](CC(C)C)C(=O)N[C@@H](CC(=O)O)C(=O)N[C@@H](Cc1ccccc1)C(N)=O [Compound 98, [Glu9,Leu14,Phe25,Tyr13]Exendin-4(1-27)-Orn-Peg3-[Leu2]Gastrin4] (H-HGEGTFTSELSKYLEEEAVRLFIEFLK[Orn][AEEA]WLDF-NH2)",10,0.046,
"H-HGEGTFTSELSKYLEEEAVRLFIEFLKWLDF-NH2 [Compound 96, [Glu9,Leu14,Phe25,Tyr13]Exendin-4(1-27)-[Leu2]Gastrin4]",211,1.2,
"CCCCCCCCCCCCCCCC(=O)N[C@@H](CCC(=O)NCCCC[C@H](NC(=O)[C@H](C)NC(=O)[C@H](C)NC(=O)[C@H](CCC(N)=O)NC(=O)CNC(=O)[C@H](CCC(=O)O)NC(=O)[C@H](CC(C)C)NC(=O)[C@H](Cc1ccc(O)cc1)NC(=O)[C@H](CO)NC(=O)[C@H](CO)NC(=O)[C@@H](NC(=O)[C@H](CC(=O)O)NC(=O)[C@H](CO)NC(=O)[C@@H](NC(=O)[C@H](Cc1ccccc1)NC(=O)[C@@H](NC(=O)CNC(=O)[C@H](CCC(=O)O)NC(=O)[C@H](C)NC(=O)[C@@H](N)Cc1c[nH]cn1)[C@@H](C)O)[C@@H](C)O)C(C)C)C(=O)N[C@@H](CCC(=O)O)C(=O)N[C@@H](Cc1ccccc1)C(=O)N[C@H](C(=O)N[C@@H](C)C(=O)N[C@@H](Cc1c[nH]c2ccccc12)C(=O)N[C@@H](CC(C)C)C(=O)N[C@H](C(=O)N[C@@H](CCCNC(=N)N)C(=O)NCC(=O)N[C@@H](CCCNC(=N)N)C(=O)NCC(=O)NCCOCCOCC(=O)NCCOCCOCC(=O)N[C@@H](Cc1ccc(O)cc1)C(=O)NCC(=O)N[C@@H](Cc1c[nH]c2ccccc12)C(=O)N[C@@H](CC(C)C)C(=O)N[C@@H](CC(=O)O)C(=O)N[C@@H](Cc1ccccc1)C(N)=O)C(C)C)[C@@H](C)CC)C(=O)O [Compound 107, [Arg34,Lys(Hexadecanoyl-isoGlu)26]GLP-1(7-37)-Peg3-Peg3-[Leu4]Gastrin6]",,,29
"CCCCCCCCCCCCCCCC(=O)N[C@@H](CCC(=O)NCCCC[C@H](NC(=O)[C@@H](NC(=O)[C@H](CC(C)C)NC(=O)[C@H](Cc1c[nH]c2ccccc12)NC(=O)[C@H](C)NC(=O)[C@@H](NC(=O)[C@H](Cc1ccccc1)NC(=O)[C@H](CCC(=O)O)NC(=O)[C@H](CCCCN)NC(=O)[C@H](C)NC(=O)[C@H](C)NC(=O)[C@H](CCC(N)=O)NC(=O)CNC(=O)[C@H](CCC(=O)O)NC(=O)[C@H](CC(C)C)NC(=O)[C@H](Cc1ccc(O)cc1)NC(=O)[C@H](CO)NC(=O)[C@H](CO)NC(=O)[C@@H](NC(=O)[C@H](CC(=O)O)NC(=O)[C@H](CO)NC(=O)[C@@H](NC(=O)[C@H](Cc1ccccc1)NC(=O)[C@@H](NC(=O)CNC(=O)[C@H](CCC(=O)O)NC(=O)[C@H](C)NC(=O)[C@@H](N)Cc1c[nH]cn1)[C@@H](C)O)[C@@H](C)O)C(C)C)[C@@H](C)CC)C(C)C)C(=O)NCC(=O)N[C@@H](CCCNC(=N)N)C(=O)NCC(=O)NCCOCCOCC(=O)NCCOCCOCC(=O)N[C@@H](Cc1ccc(O)cc1)C(=O)NCC(=O)N[C@@H](Cc1c[nH]c2ccccc12)C(=O)N[C@@H](CC(C)C)C(=O)N[C@@H](CC(=O)O)C(=O)N[C@@H](Cc1ccccc1)C(N)=O)C(=O)O [Compound 106, [Lys(Hexadecanoyl-isoGlu)34]GLP-1(7-37)-Peg3-Peg3-[Leu4]Gastrin6]",,,18
"CC[C@H](C)[C@H](NC(=O)[C@H](Cc1ccccc1)NC(=O)[C@H](CC(C)C)NC(=O)[C@H](CCCNC(=N)N)NC(=O)[C@@H](NC(=O)[C@H](C)NC(=O)[C@H](CCC(=O)O)NC(=O)[C@H](CCC(=O)O)NC(=O)[C@H](CCC(=O)O)NC(=O)[C@H](CC(C)C)NC(=O)[C@H](Cc1ccc(O)cc1)NC(=O)[C@H](CCCCN)NC(=O)[C@H](CO)NC(=O)[C@H](CC(C)C)NC(=O)[C@H](CC(=O)O)NC(=O)[C@H](CO)NC(=O)[C@@H](NC(=O)[C@H](Cc1ccccc1)NC(=O)[C@@H](NC(=O)CNC(=O)[C@H](CCC(=O)O)NC(=O)CNC(=O)[C@@H](N)Cc1c[nH]cn1)[C@@H](C)O)[C@@H](C)O)C(C)C)C(=O)N[C@@H](CCC(=O)O)C(=O)N[C@@H](Cc1ccccc1)C(=O)N[C@@H](CC(C)C)C(=O)N[C@@H](CCCCN)C(=O)NCCOCCOCC(=O)NCCOCCOCC(=O)N[C@@H](Cc1ccc(O)cc1)C(=O)NCC(=O)N[C@@H](Cc1ccccc1)C(=O)N[C@@H](CC(C)C)C(=O)N[C@@H](CC(=O)O)C(=O)N[C@@H](Cc1ccccc1)C(N)=O [Compound 89, [Leu14, Phe25,Tyr13]Exendin-4(1-27)-Peg3-Peg3-[Leu4, Phe3]Gastrin6] (H-HGEGTFTSDLSKYLEEEAVRLFIEFLK[AEEA][AEEA]YGFLDF-NH2)",1200,,
"CCCCCCCCCCCCCCCC(=O)N[C@@H](CCC(=O)NCCCC[C@H](NC(=O)[C@H](C)NC(=O)[C@H](C)NC(=O)[C@H](CCC(N)=O)NC(=O)CNC(=O)[C@H](CCC(=O)O)NC(=O)[C@H](CC(C)C)NC(=O)[C@H](Cc1ccc(O)cc1)NC(=O)[C@H](CO)NC(=O)[C@H](CO)NC(=O)[C@@H](NC(=O)[C@H](CC(=O)O)NC(=O)[C@H](CO)NC(=O)[C@@H](NC(=O)[C@H](Cc1ccccc1)NC(=O)[C@@H](NC(=O)CNC(=O)[C@H](CCC(=O)O)NC(=O)[C@H](C)NC(=O)[C@@H](N)Cc1c[nH]cn1)[C@@H](C)O)[C@@H](C)O)C(C)C)C(=O)N[C@@H](CCC(=O)O)C(=O)N[C@@H](Cc1ccccc1)C(=O)N[C@H](C(=O)N[C@@H](C)C(=O)N[C@@H](Cc1c[nH]c2ccccc12)C(=O)N[C@@H](CC(C)C)C(=O)N[C@H](C(=O)N[C@@H](CCCCN)C(=O)NCC(=O)N[C@@H](CCCNC(=N)N)C(=O)NCC(=O)NCCOCCOCC(=O)NCCOCCOCC(=O)N[C@@H](Cc1ccc(O)cc1)C(=O)NCC(=O)N[C@@H](Cc1c[nH]c2ccccc12)C(=O)N[C@@H](CC(C)C)C(=O)N[C@@H](CC(=O)O)C(=O)N[C@@H](Cc1ccccc1)C(N)=O)C(C)C)[C@@H](C)CC)C(=O)O [Compound 109, [Lys(Hexadecanoyl-isoGlu)26]GLP-1(7-37)-Peg3-Peg3-[Leu4]Gastrin6]",,,26
"CC[C@H](C)[C@H](NC(=O)[C@H](Cc1ccccc1)NC(=O)[C@H](CCC(=O)O)NC(=O)[C@H](CCCCN)NC(=O)[C@H](C)NC(=O)[C@H](C)NC(=O)[C@H](CCC(N)=O)NC(=O)CNC(=O)[C@H](CCC(=O)O)NC(=O)[C@H](CC(C)C)NC(=O)[C@H](Cc1ccc(O)cc1)NC(=O)[C@H](CO)NC(=O)[C@H](CO)NC(=O)[C@@H](NC(=O)[C@H](CC(=O)O)NC(=O)[C@H](CO)NC(=O)[C@@H](NC(=O)[C@H](Cc1ccccc1)NC(=O)[C@@H](NC(=O)CNC(=O)[C@H](CCC(=O)O)NC(=O)[C@H](C)NC(=O)[C@@H](N)Cc1c[nH]cn1)[C@@H](C)O)[C@@H](C)O)C(C)C)C(=O)N[C@@H](C)C(=O)N[C@@H](Cc1c[nH]c2ccccc12)C(=O)N[C@@H](CC(C)C)C(=O)N[C@H](C(=O)N[C@@H](CCCNC(=N)N)C(=O)NCC(=O)N[C@@H](CCCNC(=N)N)C(=O)NCC(=O)NCCOCCOCC(=O)NCCOCCOCC(=O)N[C@@H](Cc1ccc(O)cc1)C(=O)NCC(=O)N[C@@H](Cc1c[nH]c2ccccc12)C(=O)N[C@@H](CC(C)C)C(=O)N[C@@H](CC(=O)O)C(=O)N[C@@H](Cc1ccccc1)C(N)=O)C(C)C [Compound 113, [Arg34]GLP-1(7-37)-Peg3-Peg3-[Leu4]Gastrin6]",,,24
